Test results from publication PMC10135297, “Peptide-Resorcinarene Conjugates Obtained via Click Chemistry: Synthesis and Antimicrobial Activity” (Antibiotics, 2023).
In brackets after ≈: the same amount, converted by molar mass. Where two headings read alike, the source gives them in different places. Peptide text beside a SMILES is read from it.

Legend:
[1] = tested on: E. coli ATCC 25922; type: cell-based, Escherichia coli
Method: (§1) The minimum inhibitory concentration (MIC) was determined using a broth microdilution assay. Specifically, […] of Mueller Hinton broth and 90 μL of peptide (initial concentration 444 μg/mL) were added to a 96-well plate, with serial dilutions (200, 100, 50, 25, 12.5, and […] μg/mL). Then, 10 μL (5 × 10^5 CFU/mL) of inoculum was added to each well, and the final volume in each well was 100 μL. They were incubated for 24 h at 37 °C, and absorbance at 620 nm was measured using the ELISA reader. To determine the minimum bactericidal concentration (MBC), an aliquot was taken from each well and placed on a Mueller Hinton Agar plate. After 24 h of incubation at 37 °C, the MBC was determined. Each of these tests was performed in duplicate.

[2] = tested on: S. aureus ATCC 25923; type: cell-based, Staphylococcus aureus; conditions: for MBC S. aureus 25923: ATCC 25923, 24 h; for MIC S. aureus 25923: broth microdilution, Mueller Hinton broth, 24 h at 37 °C, absorbance 620 nm, in duplicate, strain sensitive to vancomycin
Method: as §1

[3] = tested on: C. albicans SC5314 (S); parameters: method as in PMID 36358216; conditions: sensitive to fluconazole; cited from earlier work
[4] = tested on: C. albicans 256 HUSI-PUJ (R); parameters: method as in PMID 36358216; conditions: resistant to fluconazole; cited from earlier work
[5] = tested on: HeLa cell line; conditions: cited from earlier work
Method: (§2) Finally, the cytotoxic effect of the conjugates over fibroblasts, MCF-7, and HeLa cell lines was evaluated (Figure 7).

[6] = tested on: MCF-7 cell line; conditions: cited from earlier work
Method: as §2

[7] = tested on: erythrocytes; type: cell-based
Method: First, 5.0 mL of heparinized peripheral blood was centrifuged at 1000 rpm for 7 min. The erythrocyte fraction was suspended in […] saline solution (SS) and washed twice by centrifugation at 1000 rpm for 7 min. The erythrocytes (2% hematocrit) were incubated with peptide (ranging from 6.2 to 200 µg/mL) for 2 h at 37 °C. SS was used as a negative control, while distilled water was used as a positive control. The mixtures were centrifuged, the supernatants were collected, and the absorbance was determined to be 540 nm.

## CC(C)C[C@H](NC(=O)[C@H](CC(C)C)NC(=O)[C@@H](N)CCCNC(=N)N)C(=O)N[C@@H](CCCNC(=N)N)C(N)=O [RLLR] (H-RLLR-NH2)
[1]; ATCC 25922, 24 h
  MBC E. coli 25922: > 359 µM
  MIC E. coli 25922: > 359 µM
[2]
  MBC S. aureus 25923: > 359 µM
  MIC S. aureus 25923: > 359 µM

## RLLRRLLR
[3]
  MIC C. albicans strain ATCC SC5314: > 183 µM
[4]
  MIC clinical isolate C. albicans 256 HUSI-PUJ: > 183 µM

## (RRWQWR)4-K2-C2
[5]
  Cytotoxicity against HeLa: exhibited cytotoxicity
[6]
  Cytotoxicity against MCF-7: exhibited cytotoxicity

## N=C(N)NCCC[C@H](NC(=O)[C@H](Cc1c[nH]c2ccccc12)NC(=O)[C@H](CCC(N)=O)NC(=O)[C@H](Cc1c[nH]c2ccccc12)NC(=O)[C@H](CCCNC(=N)N)NC(=O)[C@@H](N)CCCNC(=N)N)C(N)=O [RRWQWR] (H-RRWQWR-NH2)
[1]; ATCC 25922, 24 h
  MBC E. coli 25922: 203 µM (≈ 200 µg/mL)
  MIC E. coli 25922: 203 µM (≈ 200 µg/mL)
[2]
  MBC S. aureus 25923: > 203 µM
  MIC S. aureus 25923: > 203 µM

## CTpH(F)-(AAC-(K)-RRWQWR)4 (rctt) [tetravalent (peptide)4-resorcinarene conjugate with four copies of RRWQWR on CTpH(F)]
[1]; aliquot of each MIC well on Mueller Hinton Agar, 24 h at 37 °C, in duplicate
  MBC E. coli 25922: 36 µM
[1]; broth microdilution, Mueller Hinton broth, 24 h at 37 °C, absorbance 620 nm, in duplicate, strain susceptible to ciprofloxacin
  MIC E. coli 25922: 36 µM
[7]
  Hemolytic effect at the MIC values: Neither of the two conjugates exhibited a significant hemolytic effect
